Results published in paper PMC6274259, “New 3-Cyano-2-Substituted Pyridines Induce Apoptosis in MCF 7 Breast Cancer Cells” (Molecules, 2016).

Assays:
Format in all cases: cell-based, human
MCF-7 cells = test: Western blot analysis of protein expression
Description: Total protein was extracted from treated and untreated cells using lysis buffer (10 mM Tris-HCl (pH 7.5), 1 mM EDTA, 1% Triton X-100, 150 mM NaCl, 1 mM dithiothretol, 10% glycerol, 0.2 mM phenylmethysulphonyl fluoride and protease inhibitors) for 30–50 min on ice. The extracts were centrifuged at 13,000× g for 15 min at 4 °C to remove cell debris. Folin Lowry (Pierce, Grand Island, NY, USA) protein assay was used to figure the protein concentration in the cell lysates. Proteins were resolved by electrophoresis on 8%–10% sodium dodecyl sulphate-polycrylamide gel loading equal amount of proteins per lane. The resolved proteins were transferred onto polyvinylidene difluoride (PVDF) membrane and then probed with primary antibody against the protein of interest prepared in 5% milk/PBS-T. The membrane was washed using phosphate buffer saline with Tween 20 (PBS-T) and then appropriate secondary antibody conjugated to horseradish peroxidase (HRP) was used for visualization of the bands using ECL chemiluminescence kit (GE, Fairfield, CT, USA). Anti-p27, anti-CDK2, anti-CDK4, anti-(p21), anti-(p53), anti-Bax, anti-Akt, anti-Bcl-2, anti-MDM2, anti-cytochrome C, anti-caspase-8, anti-procaspase-8, anti-FAS, anti-VEGF, anti-MMP-9, anti-β-catenin were purchased from SantaCruz (Dallas, TX, USA). Pixel density of the proteins studied was calculated using Image J, version 1.41o, NIH (Bethesda, MD, USA). The values obtained were first normalized to loading control β-actin and the fold change was measured by normalizing to that of the control (0 h) value. At least two independent experiments were performed.

[1] = WST-1 cell viability assay, MCF-12a normal cells; conditions: human, MCF-12a normal breast epithelial cells, 2 μM, 24 h
Excerpt: (§1) The synthesized compounds were screened for their cytotoxicity on five cancer cell lines, namely SK-OV-3, MCF-7, MDA-MB-231, HCT-116 and RKO, using a WST colorimetric assay. The assay principle is based upon the reduction of the tetrazolium salt WST-1 to formazan by cellular mitochondrial dehydrogenases present in viable cells. […] Among the latter compounds the benzohydrazide derivative 9a emerged with the lowest IC50 in this study against MCF-7 cells compared to 5-FU. […] Based on the fact that 9a had less cytotoxic effects on normal breast epithelial cells it was subjected to further studies. […]
(§2) Cells were trypsinized and placed in a 15 mL Falcon tube, the cells were centrifuged for 3 min at 1000 rpm. […] Cell count was done next by taking 10 μL of the suspension into the cell counting slide and read under 10× cells/mL. […] After 24 h incubation, WST-1 reagent (Sigma) was added to each well and then the plate was incubated for 1 h before measuring the absorbance using VICTOR™ Multilabel Plate Reader (Perkin Elmer, Beaconsfield, UK). The absorbance of the colored solution can be quantified by measuring at a certain wavelength (usually between 500–600 nm), in this experiment the first reading was conducted at 540 nm and the second reading at 690 nm for the reference wavelength. The percentage of cell viability was determined as the ratio of the absorbance of the sample vs the control. […]

[2] = system: MCF-12a normal breast epithelial cells; test: WST-1 cell viability assay, MCF-12a normal cells; conditions: Homo sapiens, MCF-12A
Excerpt: as §1, §2

For `COc1ccc(-c2cc(-c3ccc(OC)c(OC)c3)c(C#N)c(OCC(=O)NNC(=O)c3ccccc3)n2)cc1OC` [Compound 9a, N'-[2-(3-cyano-4,6-bis(3,4-dimethoxyphenyl)pyridin-2-yloxy)acetyl]benzohydrazide], the “expression of CDK2” value (MCF-7 cells; 2 μM, 24 h) was “decreased”, the “expression of CDK4” value (MCF-7 cells; 2 μM, 24 h) was “decreased” and the “expression of MMP-9” value (MCF-7 cells; 2 μM, 24 h) was “significantly inhibited”. For the same compound, the “expression of VEGF” value (MCF-7 cells; 2 μM, 24 h) was “significantly inhibited”, the “expression of caspase-3” value (MCF-7 cells; 2 μM, 24 h) was “up-regulated” and the “expression of p27” value (MCF-7 cells; 2 μM, 24 h) was “increased”. For the same compound, the “level of Akt” value (MCF-7 cells; 2 μM, 24 h) was “decreased”, the “level of Bcl-2 protein” value (MCF-7 cells; 2 μM, 24 h) was “decreased” and the “level of MDM2” value (MCF-7 cells; 2 μM, 24 h) was “decreased”. For the same compound, the “level of procaspase 3” value (MCF-7 cells; 2 μM, 24 h) was “decreased”, the “expression of cytochrome c in cytoplasm” value (MCF-7 cells; 2 μM, 24 h, cytosol fraction) was “increased” and the “expression of cytochrome c in mitochondria” value (MCF-7 cells; 2 μM, 24 h, mitochondrial fraction) was “reduced”. The “level of Bax” value (MCF-7 cells; 2 μM, 24 h, vs untreated cells) was “increased”, the “level of p21” value (MCF-7 cells; 2 μM, 24 h, vs untreated cells) was “increased” and the “level of p53” value (MCF-7 cells; 2 μM, 24 h, vs untreated cells) was “increased”. The “expression of phospho AKT” value (MCF-7 cells; 0.5, 1 and 2 μM, 24 h) was “reduced the expression of phospho AKT and β-catenin in dose-dependent manner”, the “expression of β-catenin” value (MCF-7 cells; 0.5, 1 and 2 μM, 24 h) was “reduced the expression of phospho AKT and β-catenin in dose-dependent manner” and the “expression of FAS” value (MCF-7 cells; treated vs untreated) was “no significant change”. For the same compound, the “expression of caspase-8” value (MCF-7 cells; treated vs untreated) was “no significant change”, the “expression of procaspase-8” value (MCF-7 cells; treated vs untreated) was “no significant change” and the viability at 24 h, 2 µM [1] was ~74%. For the same compound, the IC50 [2] was 7.5 ± 0.25 µM.
